Assay results from patent US20160228388A1, “METHODS OF ADMINISTERING AMANTADINE COMPOSITIONS” (Adamas Pharmaceuticals, Inc., priority 2014, published 2016).
Where a name gives a salt, the structure may show the parent alone.

Experiments:
Iba-1 = assay: Example 9: Iba-1 expression (marker of microglia activation) in EAE mice; assay type: in vivo; conditions: AMT 60 mg/kg/day, FIG. 8
[1] = tested on: MOG35-55 induced experimental autoimmune encephalomyelitis (EAE) in C57BL/6 mice; assay: Example 9: clinical scoring of EAE in a mouse model of multiple sclerosis; assay type: in vivo; conditions: for onset of disease / clinical scores: AMT 60 mg/kg/day or DAL 4 mg/kg/day by Alzet minipump; for clinical scores: vs untreated EAE mice, FIG. 6; for cumulative clinical score (Day 18-27): vs untreated control, FIG. 7
[2] = tested on: MOG35-55 induced experimental autoimmune encephalomyelitis (EAE) in C57BL/6 mice; assay: Example 9: kinematic gait analysis / MotoRater walk test in EAE mice; assay type: in vivo; conditions: for % of animals able to complete the walking test: day 16, EAE mice, untreated EAE control 40%, FIG. 9
Method: The captured videos of each mouse were first converted to SimiMotion software to track the marked points of body (e.g., paws, hips, tail, etc.), and the movement of these different body points in relation to the ground were recorded in coordinates. Different gait patterns and fine motor movements were analyzed using a custom made automated analysis system. Kinematic endpoints are described in Table 13. [table] Kinematic parameters (Table 13) were graphed as individual values in a scatter graph and/or as mean (±SEM) in a bar graph.

[3] = dose related; Gracies and Olanow 2002; cited from earlier work
[4] = tested on: multiple sclerosis patients; conditions: Goodman et al. 2009; cited from earlier work
Parkinson's patients = conditions: cited from earlier work

SMILES | Iba-1 expression (Iba-1) | symptom severity ([1]; AMT 60 mg/kg/day by Alzet minipump) | onset of disease [1] | clinical scores [1] | cumulative clinical score (Day 18-27) [1] | 60 cm Walk Time ([2]; Day 14, vs untreated EAE control and dalfampridine-treated group, FIG. 10A) | mean walking speed ([2]; Day 14, vs untreated EAE control and dalfampridine-treated group, FIG. 10B) | % of animals able to complete the walking test [2] [%] | CNS side effects [3] | walking ability [4] | walking ability (velocity and stride length) (Parkinson's patients; Parkinson's patients, at four weeks, Luca et al. 2015) | gait impairment (Parkinson's patients; Parkinson's disease, Espay et al. 2011) | gait (Parkinson's patients; Parkinson's patients with severe gait disorders receiving STN stimulation, Moreau et al. 2012)
NC12CC3CC(CC(C3)C1)C2 [Amantadine HCl] | significantly lower expression | decreased symptom severity | Neither group treated with drug showed a delay onset of disease | lower clinical scores | reduced cumulative clinical scores | lower time | faster mean walking speed | 60 | dose related CNS side effects including dizziness, confusion, hallucinations, insomnia and nightmares |  |  |  | 
Nc1ccncc1 [Dalfampridine, 4-Aminopyridine] |  |  | Neither group treated with drug showed a delay onset of disease | lower clinical scores | reduced cumulative clinical scores |  |  | 50 |  | improvement in walking ability in some patients | did not show an improvement |  | 
COC(=O)C(c1ccccc1)C1CCCCN1 (centres unmarked) [Methylphenidate] |  |  |  |  |  |  |  |  |  |  |  | not effective | improvement in gait
